Measured values reported in PubChem BioAssay AID328 (DTP/NCI, 2004).
“And” between values parts separate entries of the source, which are not always exact repeats. Identical values can stand only once. Inconclusive results and toxic doses are left out.

System: BDF1 mice, P388 leukemia ip, median survival T/C
Assay: NCI In Vivo Anticancer Drug Screen. Data for tumor model P388 Leukemia (intraperitoneal) in B6D2F1 (BDF1) mice
Conditions: endpoint: median survival time, higher = longer survival
Method in brief: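 Read-out is survival of treated animals expressed relative to the vehicle group, as a T/C ratio.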

[1] = dose: 100.0 mg/kg/injection, schedule: Q04DX003 (ip), vehicle: saline
[2] = dose: 200.0 mg/kg/injection, schedule: Q04DX003 (ip), vehicle: saline
[3] = dose: 400.0 mg/kg/injection, schedule: Q04DX003 (ip), vehicle: saline
[4] = dose: 50.0 mg/kg/injection, schedule: Q01DX009 (ip), vehicle: saline with Tween-80
[5] = dose: 100.0 mg/kg/injection, schedule: Q01DX009 (ip), vehicle: saline with Tween-80
[6] = dose: 200.0 mg/kg/injection, schedule: Q01DX009 (ip), vehicle: saline with Tween-80
[7] = dose: 200.0 mg/kg/injection, schedule: Q04DX003 (ip), vehicle: saline with Tween-80
[8] = dose: 100.0 mg/kg/injection, schedule: Q04DX003 (ip), vehicle: saline with Tween-80
[9] = dose: 400.0 mg/kg/injection, schedule: Q04DX003 (ip), vehicle: saline with Tween-80
[10] = dose: 50.0 mg/kg/injection, schedule: Q01DX009 (ip), vehicle: saline
[11] = dose: 25.0 mg/kg/injection, schedule: Q01DX009 (ip), vehicle: saline
[12] = dose: 3.12 mg/kg/injection, schedule: Q01DX009 (ip), vehicle: Klucel (hydroxypropylcellulose) (HPC)
[13] = dose: 6.25 mg/kg/injection, schedule: Q01DX009 (ip), vehicle: Klucel (hydroxypropylcellulose) (HPC)

O
T/C (dose: 100.0 mg/kg/injection, schedule: Q01DX001 (ip), vehicle: saline): 95 % of control
T/C [1]: 105 % of control
T/C (dose: 200.0 mg/kg/injection, schedule: Q01DX001 (ip), vehicle: saline): 90 % of control
T/C [2]: 95 % of control
T/C (dose: 400.0 mg/kg/injection, schedule: Q01DX001 (ip), vehicle: saline): 90 % of control
T/C [3]: 105 % of control

CC12CC3(O)CCC1CCC2C(=O)C3 (stereo not drawn)
T/C [1]: 118 % of control
T/C [2]: 109 % of control
T/C [3]: 122 % of control

CC(c1ccccc1)(c1ccccc1)c1ccccc1
T/C [4]: 101 % of control
T/C [5]: 101 % of control
T/C [6]: 97 % of control

CC(=O)c1ccccc1OS(=O)(=O)c1ccc([N+](=O)[O-])cc1
T/C (dose: 100.0 mg/kg/injection, schedule: Q01DX009 (ip), vehicle: saline sonified): 95 % of control
T/C (dose: 100.0 mg/kg/injection, schedule: Q04DX003 (ip), vehicle: saline sonified): 100 % of control
T/C (dose: 200.0 mg/kg/injection, schedule: Q01DX009 (ip), vehicle: saline sonified): 104 % of control
T/C (dose: 200.0 mg/kg/injection, schedule: Q04DX003 (ip), vehicle: saline sonified): 90 % of control
T/C (dose: 400.0 mg/kg/injection, schedule: Q04DX003 (ip), vehicle: saline sonified): 100 % of control

COc1ccc(C(O)C2CCCN(C)S2(=O)=O)cc1 (stereo not drawn)
T/C (dose: 100.0 mg/kg/injection, schedule: Q04DX002 (ip), vehicle: saline with Tween-80): 117 % of control
T/C (dose: 200.0 mg/kg/injection, schedule: Q04DX002 (ip), vehicle: saline with Tween-80): 112 % of control
T/C (dose: 400.0 mg/kg/injection, schedule: Q04DX002 (ip), vehicle: saline with Tween-80): 111 % of control

CC(=O)OCC1OC(n2cnc3c(=S)nc(N)[nH]c32)C(OC(C)=O)C1OC(C)=O (stereo not drawn)
T/C (dose: 3.5 mg/kg/injection, schedule: Q01DX009 (ip), vehicle: saline with Tween-80): 113 % of control
T/C (dose: 5.2 mg/kg/injection, schedule: Q01DX009 (ip), vehicle: saline with Tween-80): 122 % of control
T/C (dose: 12.0 mg/kg/injection, schedule: Q01DX009 (ip), vehicle: saline with Tween-80): 90 % of control
T/C (dose: 18.0 mg/kg/injection, schedule: Q01DX009 (ip), vehicle: saline with Tween-80): 100 % of control
T/C (dose: 26.0 mg/kg/injection, schedule: Q01DX009 (ip), vehicle: saline with Tween-80): 90 % of control
T/C (dose: 40.0 mg/kg/injection, schedule: Q01DX009 (ip), vehicle: saline with Tween-80): 90 % of control
T/C [4]: 90 % of control
T/C (dose: 132.0 mg/kg/injection, schedule: Q04DX003 (ip), vehicle: saline with Tween-80): 100 % of control
T/C [7]: 166 % of control

COc1ccc(C2=CCCCC2)cc1
T/C [5]: 103 % of control
T/C [8]: 104 % of control
T/C [6]: 103 % of control
T/C [7]: 104 % of control
T/C [9]: 95 % of control

COC(=O)C1CSC2(CCCN(Cc3ccccc3)C2)N1 (stereo not drawn)
T/C [10]: 113 % of control
T/C (dose: 100.0 mg/kg/injection, schedule: Q01DX009 (ip), vehicle: saline): 119 % of control
T/C (dose: 200.0 mg/kg/injection, schedule: Q01DX009 (ip), vehicle: saline): 96 % of control

CC[C@@]1(O)C[C@H](OC2CC(N(C)C)C(OC3CC(O)C(OC4CC(O)C(O)C(C)O4)C(C)O3)C(C)O2)c2c(cc3c(c2O)C(=O)c2c(O)ccc(O)c2C3=O)[C@H]1C(=O)OC (stereo partly drawn)
T/C (dose: 1.08 mg/kg/injection, schedule: Q04DX003 (ip), vehicle: water): 185 % of control
T/C (dose: 1.8 mg/kg/injection, schedule: Q04DX003 (ip), vehicle: water): 194 % of control
T/C (dose: 1.9 mg/kg/injection, schedule: Q01DX001 (ip), vehicle: other): 169 % of control
T/C (dose: 3.8 mg/kg/injection, schedule: Q01DX001 (ip), vehicle: other): 196 % of control
T/C (dose: 5.0 mg/kg/injection, schedule: Q04DX003 (ip), vehicle: water): 101 % of control
T/C (dose: 7.5 mg/kg/injection, schedule: Q01DX001 (ip), vehicle: other): 198 % of control

CSC(=O)OCC1=CC2OC(=O)C3=COC(OC4OC(CO)C(O)C(O)C4O)C1C32 (stereo not drawn)
T/C (dose: 2.0 mg/kg/injection, schedule: Q01DX009 (ip), vehicle: saline with Tween-80): 101 % of control
T/C (dose: 4.0 mg/kg/injection, schedule: Q01DX009 (ip), vehicle: saline with Tween-80): 101 % of control
T/C (dose: 16.0 mg/kg/injection, schedule: Q01DX009 (ip), vehicle: saline with Tween-80): 111 % of control

CC1(C)N=C(N)N=C(N)N1c1ccc(CCCCc2ccc(Cl)c(S(=O)(=O)F)c2)c(Cl)c1
T/C (dose: 0.88 mg/kg/injection, schedule: Q01DX009 (ip), vehicle: saline): 118 % of control
T/C (dose: 1.32 mg/kg/injection, schedule: Q01DX009 (ip), vehicle: saline): 109 % of control
T/C (dose: 2.36 mg/kg/injection, schedule: Q04DX003 (ip), vehicle: saline): 106 % of control
T/C (dose: 3.56 mg/kg/injection, schedule: Q04DX003 (ip), vehicle: saline): 123 % of control
T/C (dose: 5.33 mg/kg/injection, schedule: Q04DX003 (ip), vehicle: saline): 108 % of control
T/C (dose: 8.0 mg/kg/injection, schedule: Q04DX003 (ip), vehicle: saline): 115 % of control
T/C (dose: 8.33 mg/kg/injection, schedule: Q04DX003 (ip), vehicle: saline): 120 % of control
T/C (dose: 12.0 mg/kg/injection, schedule: Q01DX009 (ip), vehicle: saline): 163 % of control
T/C (dose: 12.5 mg/kg/injection, schedule: Q04DX003 (ip), vehicle: saline): 181 % of control
T/C (dose: 18.0 mg/kg/injection, schedule: Q01DX009 (ip), vehicle: saline): 159 % of control
T/C [11]: 104 % of control
T/C [10]: 104 % of control
T/C (dose: 50.0 mg/kg/injection, schedule: Q04DX003 (ip), vehicle: saline): 113 % of control

[F][Fe]([F])([F])([F])([F])[F]
T/C [4]: 95 % of control
T/C [5]: 101 % of control

O=C(Nc1[nH]nc2nccnc12)C(F)(F)F
T/C [8]: 109 % of control
T/C [7]: 104 % of control
T/C [9]: 118 % of control

Nc1n[nH]c(=S)n1-c1ccc(Cl)cc1
T/C (dose: 100.0 mg/kg/injection, schedule: Q04DX003 (ip), vehicle: Klucel (hydroxypropylcellulose) (HPC)): 100 % of control
T/C (dose: 200.0 mg/kg/injection, schedule: Q04DX003 (ip), vehicle: Klucel (hydroxypropylcellulose) (HPC)): 104 % of control
T/C (dose: 400.0 mg/kg/injection, schedule: Q04DX003 (ip), vehicle: Klucel (hydroxypropylcellulose) (HPC)): 100 % of control

C=[CH][Sn]([CH]=C)([CH]=C)[O]C(C)=O
T/C (dose: 1.56 mg/kg/injection, schedule: Q01DX009 (ip), vehicle: Klucel (hydroxypropylcellulose) (HPC)): 101 % of control
T/C (dose: 1.56 mg/kg/injection, schedule: Q04DX003 (ip), vehicle: Klucel (hydroxypropylcellulose) (HPC)): 91 % of control
T/C [12]: 101 % of control and 109 % of control
T/C (dose: 3.12 mg/kg/injection, schedule: Q04DX003 (ip), vehicle: Klucel (hydroxypropylcellulose) (HPC)): 92 % of control
T/C [13]: 110 % of control and 117 % of control
T/C (dose: 6.25 mg/kg/injection, schedule: Q04DX003 (ip), vehicle: Klucel (hydroxypropylcellulose) (HPC)): 94 % of control and 101 % of control
T/C (dose: 12.5 mg/kg/injection, schedule: Q01DX009 (ip), vehicle: Klucel (hydroxypropylcellulose) (HPC)): 153 % of control and 160 % of control
T/C (dose: 12.5 mg/kg/injection, schedule: Q01DX009 (ip), vehicle: saline): 153 % of control and 162 % of control
T/C (dose: 12.5 mg/kg/injection, schedule: Q04DX003 (ip), vehicle: Klucel (hydroxypropylcellulose) (HPC)): 104 % of control and 106 % of control
T/C [11]: 86 % of control

CC[N-]c1nnnn1CC.[Au+].c1ccc([PH+](c2ccccc2)c2ccccc2)cc1
T/C (dose: 12.5 mg/kg/injection, schedule: Q01DX001 (ip), vehicle: saline with Tween-80): 100 % of control
T/C (dose: 25.0 mg/kg/injection, schedule: Q01DX001 (ip), vehicle: saline with Tween-80): 111 % of control

COC1=CC=C2C3Cc4ccc(OC)c(O)c4C2(C1)CN3C (stereo not drawn)
T/C [12]: 87 % of control
T/C [13]: 87 % of control
T/C (dose: 25.0 mg/kg/injection, schedule: Q01DX009 (ip), vehicle: Klucel (hydroxypropylcellulose) (HPC)): 100 % of control

CNc1nc(N)nc(Nc2ccc(I)cc2)c1N=O
T/C [5]: 90 % of control and 100 % of control
T/C [8]: 95 % of control
T/C [6]: 90 % of control and 91 % of control
T/C [7]: 112 % of control
T/C (dose: 400.0 mg/kg/injection, schedule: Q01DX009 (ip), vehicle: saline with Tween-80): 87 % of control
T/C [9]: 91 % of control
